IC50 data for 9 compounds are collected here from ChEMBL document CHEMBL5727778, “Pyrimidine derivative and use thereof” (2020).

The experiment has as its target ALK tyrosine kinase receptor (Homo sapiens, UniProt Q9UM73). The experiment is described as follows: Inhibition Assay: 1× Kinase Buffer 50 mM HEPES. pH 7.5 0.0015% Brij-35 10 mM MgCl2 2 mM DTT 2) stop buffer 100 mM HEPES, pH 7.5 0.015% Brij-35 0.2% Coating Reagent #3 50 mM EDTAPrepare a Compound Solution to be Tested Step 2.1 Dilute the compound to 50× of the final desired highest inhibitor concentration in reaction by 100% DMSO. Transfer 100 μl of this compound dilution to a well in a 96-well plate. For example, if desired highest inhibitor concentration is 1 μM, then prepare 50 μM of compound DMSO solution in this step.

Sequence of ALK tyrosine kinase receptor (Q9UM73 whole entry): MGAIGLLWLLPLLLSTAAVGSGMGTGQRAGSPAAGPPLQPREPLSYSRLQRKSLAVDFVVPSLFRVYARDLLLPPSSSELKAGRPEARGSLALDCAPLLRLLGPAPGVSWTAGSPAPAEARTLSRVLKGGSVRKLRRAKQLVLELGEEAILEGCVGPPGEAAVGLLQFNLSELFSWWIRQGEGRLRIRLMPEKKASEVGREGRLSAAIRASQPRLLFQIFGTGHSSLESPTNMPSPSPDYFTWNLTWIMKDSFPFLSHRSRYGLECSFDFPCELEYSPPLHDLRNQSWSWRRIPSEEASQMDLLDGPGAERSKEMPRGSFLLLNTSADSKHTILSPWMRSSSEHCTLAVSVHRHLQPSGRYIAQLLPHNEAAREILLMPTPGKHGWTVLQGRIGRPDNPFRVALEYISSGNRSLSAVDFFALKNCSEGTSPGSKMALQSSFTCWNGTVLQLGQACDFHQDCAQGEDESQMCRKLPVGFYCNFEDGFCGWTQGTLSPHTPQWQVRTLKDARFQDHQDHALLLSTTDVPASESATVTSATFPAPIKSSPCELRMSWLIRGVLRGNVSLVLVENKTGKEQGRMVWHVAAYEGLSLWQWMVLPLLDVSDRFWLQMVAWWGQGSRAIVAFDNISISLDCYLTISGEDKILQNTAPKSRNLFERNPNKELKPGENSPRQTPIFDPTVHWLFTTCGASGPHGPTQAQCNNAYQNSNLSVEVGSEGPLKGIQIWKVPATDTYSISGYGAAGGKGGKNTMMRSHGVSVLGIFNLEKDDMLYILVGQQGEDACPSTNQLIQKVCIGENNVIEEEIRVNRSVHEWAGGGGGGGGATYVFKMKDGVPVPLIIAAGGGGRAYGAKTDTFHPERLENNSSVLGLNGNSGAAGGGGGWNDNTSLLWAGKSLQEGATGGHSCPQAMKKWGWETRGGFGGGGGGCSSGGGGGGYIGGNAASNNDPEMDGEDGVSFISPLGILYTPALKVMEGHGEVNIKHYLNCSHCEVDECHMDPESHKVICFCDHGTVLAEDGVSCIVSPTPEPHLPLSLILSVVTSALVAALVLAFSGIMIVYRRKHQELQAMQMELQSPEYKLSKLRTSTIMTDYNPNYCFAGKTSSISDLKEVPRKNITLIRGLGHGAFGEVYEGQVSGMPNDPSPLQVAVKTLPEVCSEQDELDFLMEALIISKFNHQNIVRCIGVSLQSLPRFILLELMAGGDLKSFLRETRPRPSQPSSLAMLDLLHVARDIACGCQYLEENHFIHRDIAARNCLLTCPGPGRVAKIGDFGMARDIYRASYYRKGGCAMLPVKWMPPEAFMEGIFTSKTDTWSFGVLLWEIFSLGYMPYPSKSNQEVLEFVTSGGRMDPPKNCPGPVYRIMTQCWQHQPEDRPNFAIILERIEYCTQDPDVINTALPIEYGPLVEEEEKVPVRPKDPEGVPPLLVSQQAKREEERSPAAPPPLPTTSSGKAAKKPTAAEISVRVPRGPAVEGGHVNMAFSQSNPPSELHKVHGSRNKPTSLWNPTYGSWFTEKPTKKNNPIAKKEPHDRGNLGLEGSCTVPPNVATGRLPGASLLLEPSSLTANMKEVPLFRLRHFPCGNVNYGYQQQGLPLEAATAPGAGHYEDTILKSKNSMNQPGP

In general, IC50 refers to the midpoint of a concentration-inhibition curve. The low end stands for greater potency in that assay, the high end for weaker potency in that assay. For the compound `COc1cc(N2CCC(N3CCOCC3)CC2)ccc1Nc1ncc(Cl)c(Nc2ccsc2S(=O)(=O)C(C)C)n1`, the IC50 is less than 1 nM.

Regarding `COc1cc(N2CCOCC2)ccc1Nc1ncc(Cl)c(Nc2ccsc2S(=O)(=O)C(C)C)n1`, the IC50 was less than 1 nM. `COc1cc(N2CCC(O)CC2)ccc1Nc1ncc(Cl)c(Nc2ccsc2S(=O)(=O)C(C)C)n1`: the half-maximal inhibitory concentration (IC50) is less than 1 nM. Compound `COc1cc(N2CCC(N3CCC(N(C)C)CC3)CC2)ccc1Nc1ncc(Cl)c(Nc2ccccc2S(=O)(=O)C(C)C)n1` had an IC50 of less than 1 nM. `COc1cc(N2CCC(N(C)C)CC2)ccc1Nc1ncc(Cl)c(Nc2ccsc2S(=O)(=O)C(C)C)n1` gave an IC50 of less than 1 nM. To `COc1cc(N2CCN(C)CC2)ccc1Nc1ncc(Cl)c(Nc2ccsc2S(=O)(=O)C(C)C)n1` belongs less than 1 nM; to `COc1cc(N2CCC(N(C)C)CC2)ccc1Nc1ncc(Cl)c(Nc2ccccc2S(=O)(=O)C(C)C)n1`, less than 1 nM; to `COc1cc(N2CCN(C)CC2)ccc1Nc1ncc(Cl)c(Nc2ccccc2S(=O)(=O)C(C)C)n1`, less than 1 nM. For `CC(C)S(=O)(=O)c1ccccc1Nc1nc(Nc2ccc(N3CCC(N(C)C)CC3)cc2OC(F)F)ncc1Cl`, the IC50 is less than 1 nM.
